Measurements as given in ChEMBL document CHEMBL1255497, “Azole resistance profile of amino acid changes in Aspergillus fumigatus CYP51A based on protein homology modeling” (2010).
In brackets after ≈: the same amount, converted by molar mass.

What was measured:
Aspergillus fumigatus [1] = test: Antimicrobial activity against itraconazole-resistant Aspergillus fumigatus clinical isolate expressing cyp51A G54W mutant gene by CLSI method; type: functional
Aspergillus fumigatus [2] = test: Antimicrobial activity against itraconazole-resistant Aspergillus fumigatus clinical isolate expressing cyp51A G138C mutant gene by CLSI method; type: functional
Aspergillus fumigatus [3] = test: Antimicrobial activity against itraconazole-resistant Aspergillus fumigatus clinical isolate expressing cyp51A M220R mutant gene by CLSI method; type: functional
Aspergillus fumigatus [4] = test: Antimicrobial activity against itraconazole-resistant Aspergillus fumigatus clinical isolate expressing cyp51A M220I mutant gene by CLSI method; type: functional
Aspergillus fumigatus [5] = test: Antimicrobial activity against itraconazole-resistant Aspergillus fumigatus clinical isolate expressing cyp51A M220V mutant gene by CLSI method; type: functional
Aspergillus fumigatus [6] = test: Antimicrobial activity against itraconazole-resistant Aspergillus fumigatus clinical isolate expressing cyp51A M220K mutant gene by CLSI method; type: functional
Aspergillus fumigatus [7] = test: Antimicrobial activity against itraconazole-resistant Aspergillus fumigatus clinical isolate expressing cyp51A F46Y, G89G, M172V, N248T, D255E, L358L, E427K and C454C mutant gene by CLSI method; type: functional
Aspergillus fumigatus [8] = test: Antimicrobial activity against itraconazole-resistant Aspergillus fumigatus clinical isolate expressing cyp51A L98H, S297T, F495 mutant gene by CLSI method; type: functional
Aspergillus fumigatus [9] = test: Antimicrobial activity against itraconazole-resistant Aspergillus fumigatus clinical isolate expressing cyp51A L98H, F495I mutant gene by CLSI method; type: functional
Aspergillus fumigatus [10] = test: Antimicrobial activity against itraconazole-resistant Aspergillus fumigatus clinical isolate expressing cyp51A L98H, Q88H mutant gene and by CLSI method; type: functional
Aspergillus fumigatus [11] = test: Antimicrobial activity against itraconazole-resistant Aspergillus fumigatus clinical isolate expressing cyp51A L98H, N125I mutant gene by CLSI method; type: functional
Aspergillus fumigatus [12] = test: Antimicrobial activity against itraconazole-resistant Aspergillus fumigatus clinical isolate expressing cyp51A L98H, A284A mutant gene by CLSI method; type: functional
Aspergillus fumigatus [13] = test: Antimicrobial activity against itraconazole-resistant Aspergillus fumigatus clinical isolate expressing cyp51A L98H, L339L mutant gene by CLSI method; type: functional
Aspergillus fumigatus [14] = test: Antimicrobial activity against itraconazole-resistant Aspergillus fumigatus clinical isolate expressing cyp51A L98H mutant gene by CLSI method; type: functional
Aspergillus fumigatus [15] = test: Antimicrobial activity against itraconazole-resistant Aspergillus fumigatus clinical isolate expressing wild type cyp51A gene by CLSI method; type: functional
Aspergillus fumigatus [16] = test: Antimicrobial activity against itraconazole-susceptible Aspergillus fumigatus clinical isolate expressing cyp51A F46Y, G89G mutant gene by CLSI method; type: functional
Aspergillus fumigatus [17] = test: Antimicrobial activity against itraconazole-susceptible Aspergillus fumigatus clinical isolate expressing cyp51A F46Y, G89G, E427K, C454C mutant gene by CLSI method; type: functional
Aspergillus fumigatus [18] = test: Antimicrobial activity against itraconazole-susceptible Aspergillus fumigatus clinical isolate expressing cyp51A F46Y, G89G, L358L, E427K, C454C mutant gene by CLSI method; type: functional
Aspergillus fumigatus [19] = test: Antimicrobial activity against itraconazole-susceptible Aspergillus fumigatus clinical isolate expressing cyp51A F46Y, M172V, L358L, E427K, C454C mutant gene by CLSI method; type: functional
Aspergillus fumigatus [20] = test: Antimicrobial activity against itraconazole-susceptible Aspergillus fumigatus clinical isolate expressing cyp51A F46Y, G89G, M172V, L358L, E427K, C454C mutant gene by CLSI method; type: functional
Aspergillus fumigatus [21] = test: Antimicrobial activity against itraconazole-susceptible Aspergillus fumigatus clinical isolate expressing cyp51A F46Y, G89G, M172V, N248T, D255E, E427K mutant gene by CLSI method; type: functional
Aspergillus fumigatus [22] = test: Antimicrobial activity against itraconazole-susceptible Aspergillus fumigatus clinical isolate expressing cyp51A F46Y, G89G, M172V, N248T, D255E, L358L, E427K, C454C mutant gene by CLSI method; type: functional
Aspergillus fumigatus [23] = test: Antimicrobial activity against itraconazole-susceptible Aspergillus fumigatus clinical isolate expressing cyp51A E130D mutant gene by CLSI method; type: functional
Aspergillus fumigatus [24] = test: Antimicrobial activity against itraconazole-susceptible Aspergillus fumigatus clinical isolate expressing cyp51A L252L mutant gene by CLSI method; type: functional
Aspergillus fumigatus [25] = test: Antimicrobial activity against itraconazole-susceptible Aspergillus fumigatus clinical isolate expressing cyp51A S400I mutant gene by CLSI method; type: functional
Aspergillus fumigatus [26] = test: Antimicrobial activity against itraconazole-susceptible Aspergillus fumigatus clinical isolate expressing wild type cyp51A gene by CLSI method; type: functional
Aspergillus fumigatus [27] = test: Antimicrobial activity against itraconazole-resistant Aspergillus fumigatus clinical isolate expressing cyp51A G54E mutant gene by CLSI method; type: functional
Aspergillus fumigatus [28] = test: Antimicrobial activity against itraconazole-resistant Aspergillus fumigatus environmental isolate expressing cyp51A L98H, S52T mutant gene by CLSI method
Aspergillus fumigatus [29] = test: Antimicrobial activity against itraconazole-resistant Aspergillus fumigatus environmental isolate expressing cyp51A L98H, Q141H mutant gene by CLSI method
Aspergillus fumigatus [30] = test: Antimicrobial activity against itraconazole-susceptible Aspergillus fumigatus environmental isolate expressing cyp51A F46Y, G89G, M172V, L358L, C454C mutant gene by CLSI method

Structure (SMILES)	MIC (Aspergillus fumigatus [1]) [µg/mL]	MIC (Aspergillus fumigatus [2]) [µg/mL]	MIC (Aspergillus fumigatus [3]) [µg/mL]	MIC (Aspergillus fumigatus [4]) [µg/mL]	MIC (Aspergillus fumigatus [5]) [µg/mL]	MIC (Aspergillus fumigatus [6]) [µg/mL]	MIC (Aspergillus fumigatus [7]) [µg/mL]	MIC (Aspergillus fumigatus [8]) [µg/mL]	MIC (Aspergillus fumigatus [9]) [µg/mL]	MIC (Aspergillus fumigatus [10]) [µg/mL]	MIC (Aspergillus fumigatus [11]) [µg/mL]	MIC (Aspergillus fumigatus [12]) [µg/mL]	MIC (Aspergillus fumigatus [13]) [µg/mL]	MIC (Aspergillus fumigatus [14]) [µg/mL]	MIC (Aspergillus fumigatus [15]) [µg/mL]	MIC (Aspergillus fumigatus [16]) [µg/mL]	MIC (Aspergillus fumigatus [17]) [µg/mL]	MIC (Aspergillus fumigatus [18]) [µg/mL]	MIC (Aspergillus fumigatus [19]) [µg/mL]	MIC (Aspergillus fumigatus [20]) [µg/mL]	further results
CCC(C)n1ncn(-c2ccc(N3CCN(c4ccc(OCC5COC(Cn6cncn6)(c6ccc(Cl)cc6Cl)O5)cc4)CC3)cc2)c1=O (stereo not given) [ITRACONAZOLE]	> 16	> 16	> 16	> 16	> 16	> 16	> 16	16 (≈ 22.7 µM)	> 16	> 16	> 16	> 16	> 16	4 (≈ 5.67 µM)	8 (≈ 11.3 µM)	0.125 (≈ 0.177 µM)	0.25 (≈ 0.354 µM)	0.25 (≈ 0.354 µM)	0.125 (≈ 0.177 µM)	0.125 (≈ 0.177 µM)	MIC (Aspergillus fumigatus [21]): 0.25 µg/mL (≈ 0.354 µM); MIC (Aspergillus fumigatus [22]): 0.25 µg/mL (≈ 0.354 µM); MIC (Aspergillus fumigatus [23]): 0.5 µg/mL (≈ 0.709 µM); MIC (Aspergillus fumigatus [24]): 0.25 µg/mL (≈ 0.354 µM); MIC (Aspergillus fumigatus [25]): 1 µg/mL (≈ 1.42 µM); MIC (Aspergillus fumigatus [26]): 0.125 µg/mL (≈ 0.177 µM); MIC (Aspergillus fumigatus [27]): > 16 µg/mL; MIC (Aspergillus fumigatus [28]): > 16 µg/mL; MIC (Aspergillus fumigatus [29]): > 16 µg/mL; MIC (Aspergillus fumigatus [30]): 0.25 µg/mL (≈ 0.354 µM)
CC[C@@H]([C@H](C)O)n1ncn(-c2ccc(N3CCN(c4ccc(OC[C@@H]5CO[C@@](Cn6cncn6)(c6ccc(F)cc6F)C5)cc4)CC3)cc2)c1=O [POSACONAZOLE]	> 16	> 16	2 (≈ 2.85 µM)	0.5 (≈ 0.713 µM)	0.5 (≈ 0.713 µM)	> 16	1 (≈ 1.43 µM)	0.063 (≈ 0.0899 µM)	0.125 (≈ 0.178 µM)	0.25 (≈ 0.357 µM)	0.5 (≈ 0.713 µM)	0.5 (≈ 0.713 µM)	1 (≈ 1.43 µM)	0.25 (≈ 0.357 µM)	0.125 (≈ 0.178 µM)	0.016 (≈ 0.0228 µM)	0.063 (≈ 0.0899 µM)	0.063 (≈ 0.0899 µM)	0.063 (≈ 0.0899 µM)	0.063 (≈ 0.0899 µM)	MIC (Aspergillus fumigatus [21]): 0.063 µg/mL (≈ 0.0899 µM); MIC (Aspergillus fumigatus [22]): 0.063 µg/mL (≈ 0.0899 µM); MIC (Aspergillus fumigatus [23]): 0.125 µg/mL (≈ 0.178 µM); MIC (Aspergillus fumigatus [24]): 0.5 µg/mL (≈ 0.713 µM); MIC (Aspergillus fumigatus [25]): 0.25 µg/mL (≈ 0.357 µM); MIC (Aspergillus fumigatus [26]): 0.031 µg/mL (≈ 0.0442 µM); MIC (Aspergillus fumigatus [27]): 0.25 µg/mL (≈ 0.357 µM); MIC (Aspergillus fumigatus [28]): 0.5 µg/mL (≈ 0.713 µM); MIC (Aspergillus fumigatus [29]): 0.5 µg/mL (≈ 0.713 µM); MIC (Aspergillus fumigatus [30]): 0.125 µg/mL (≈ 0.178 µM)
C[C@@H](c1ncncc1F)[C@](O)(Cn1cncn1)c1ccc(F)cc1F [VORICONAZOLE]	0.25 (≈ 0.716 µM)	8 (≈ 22.9 µM)	2 (≈ 5.73 µM)	1 (≈ 2.86 µM)	1 (≈ 2.86 µM)	2 (≈ 5.73 µM)	> 16	1 (≈ 2.86 µM)	2 (≈ 5.73 µM)	8 (≈ 22.9 µM)	8 (≈ 22.9 µM)	4 (≈ 11.5 µM)	8 (≈ 22.9 µM)	2 (≈ 5.73 µM)	0.25 (≈ 0.716 µM)	0.5 (≈ 1.43 µM)	0.25 (≈ 0.716 µM)	2 (≈ 5.73 µM)	1 (≈ 2.86 µM)	0.5 (≈ 1.43 µM)	MIC (Aspergillus fumigatus [21]): 1 µg/mL (≈ 2.86 µM); MIC (Aspergillus fumigatus [22]): 0.25 µg/mL (≈ 0.716 µM); MIC (Aspergillus fumigatus [23]): 0.5 µg/mL (≈ 1.43 µM); MIC (Aspergillus fumigatus [24]): 1 µg/mL (≈ 2.86 µM); MIC (Aspergillus fumigatus [25]): 2 µg/mL (≈ 5.73 µM); MIC (Aspergillus fumigatus [26]): 0.5 µg/mL (≈ 1.43 µM); MIC (Aspergillus fumigatus [27]): 0.25 µg/mL (≈ 0.716 µM); MIC (Aspergillus fumigatus [28]): 4 µg/mL (≈ 11.5 µM); MIC (Aspergillus fumigatus [29]): 4 µg/mL (≈ 11.5 µM); MIC (Aspergillus fumigatus [30]): 1 µg/mL (≈ 2.86 µM)
